Molecules are shown by their SMILES.

The experiment deals with IFNα-induced pSTAT5 (pY694) in CD3 positive cells of human whole blood. The experiment can be described thus: IFNα-Induced STAT Phosphorylation in Human Whole Blood. In kind it is cell-based. The settings on record: Homo sapiens, 1 h compound incubation, 1000 U/mL recombinant human IFNα A/D for 15 min, pSTAT5 in CD3 positive population, read-out: Human WB IFNα-Induced Stat Phosph. (IC50). As to the method:
IFNα-Induced STAT Phosphorylation in Human Whole Blood
After an hour long incubation with compound, human whole blood (drawn with either EDTA or ACD-A as anti-coagulant) was stimulated with 1000 U/mL recombinant human IFNα A/D (R&D Systems 11200-2) for 15 min. The stimulation was stopped by adding Fix/Lyse buffer (BD 558049). Cells were stained with a CD3 FITC antibody (BD 555916), washed, and permeabilized on ice using Perm III buffer (BD 558050). Cells were then stained with an Alexa-Fluor 647 pSTAT5 (pY694) antibody (BD 612599) for 30 min prior to analysis on the FACS Canto II. The amount of pSTAT5 expression was quantitated by median fluorescence intensity after gating on the CD3 positive population.
IFNα-Induced STAT Phosphorylation in Human Whole Blood Inhibition Data ND—no data available
A word on the IC50: it is the concentration that gives 50% inhibition. As for `[2H]C([2H])([2H])NC(=O)c1nnc(NC(=O)C2CC2)cc1Nc1cccc(-c2ncc(C(=O)N3CCC3C)s2)c1OC` (stereo not shown) [Example 328], the IC50 came to 160 nM. As for `[2H]C([2H])([2H])NC(=O)c1nnc(NC(=O)C2CC2)cc1Nc1cccc(-c2cc(C(=O)NCCN(C)C)n(C)n2)c1OC` [Example 536], the IC50 amounted to 650 nM. Then `[2H]C([2H])([2H])NC(=O)c1nnc(Nc2ccc(C)nn2)cc1Nc1cccc(-c2cn(CCN3CCOCC3)nn2)c1OC` [Example 424], with 200 nM. As for `COc1c(Nc2cc(NC(=O)C3CC3)nnc2C(N)=O)cccc1-c1nccs1` [Example 406], the IC50 was determined as 180 nM. Consider `[2H]C([2H])([2H])NC(=O)c1nnc(NC(=O)C2CC2)cc1Nc1cccc(-c2ncc(C(=O)N3CCC3)s2)c1OC` [Example 313], for which the IC50 was determined as 70 nM. For the molecule `[2H]C([2H])([2H])NC(=O)c1nnc(NC(=O)C2CC2)cc1Nc1cccc(-c2cc(C(=O)NC(C)C)n(C)n2)c1OC` [Example 535], the IC50 is 1500 nM.

With `[2H]C([2H])([2H])NC(=O)c1cnc(NC(=O)C2CC2)cc1Nc1cccc(-c2ncc(C(C)(C)O)s2)c1OC` [Example 270], the IC50 was 100 nM.

Regarding `[2H]C([2H])([2H])NC(=O)c1nnc(NC(=O)C2CC2)cc1Nc1cccc(-c2nc(CC)no2)c1OC` [Example 121], the IC50 was over 10000 nM. As to `[2H]C([2H])([2H])NC(=O)c1nnc(NC(=O)C2CC2)cc1Nc1cccc(-c2ncc(C(=O)N3CCNC(=O)C3)s2)c1OC` [Example 312], the IC50 is 70 nM. Take `[2H]C([2H])([2H])NC(=O)c1nnc(NC(=O)C2CC2)cc1Nc1cccc(-c2cnn(CCNS(C)(=O)=O)c2)c1OC` [Example 560]: the IC50 stood at 2210 nM. On to `[2H]C([2H])([2H])NC(=O)c1cnc(NC(=O)C2CC2)cc1Nc1cccc(-c2nc(CO)no2)c1OC` [Example 217], for which the IC50 is 180 nM. On to `[2H]C([2H])([2H])NC(=O)c1nnc(NC(=O)C2CC2)cc1Nc1cccc(-c2nc(C3(NC(=O)OC(C)(C)C)CC3)no2)c1OC` [Example 150], for which the IC50 is over 10000 nM. For `[2H]C([2H])([2H])NC(=O)c1nnc(Nc2ccc(OC)nn2)cc1Nc1cccc(-c2nc(C(=O)N(C)C)cs2)c1OC` [Example 379], the IC50 was found to be 560 nM. For `[2H]C([2H])([2H])NC(=O)c1nnc(NC(=O)C2CC2)cc1Nc1cccc(-c2ncc(C(=O)N3CCC(CCCO)CC3)s2)c1OC` [Example 353], the IC50 stood at 170 nM. Take `COc1c(Nc2cc(NC(=O)C3CC3)nnc2C(N)=O)cccc1-c1noc(CNS(C)(=O)=O)n1` [Example 38]: the IC50 was determined as 30 nM.

On to `[2H]C([2H])([2H])NC(=O)c1nnc(Nc2cc(C(C)(C)O)ccn2)cc1Nc1cc(F)cc(-c2cc(C(=O)N(C)C)n(C)n2)c1OC` [Example 550], for which the IC50 came to 240 nM. With `[2H]C([2H])([2H])NC(=O)c1nnc(NC(=O)C2CC2)cc1Nc1cccc(-c2nc(/C=C/c3ccccc3)no2)c1OC` [Example 236] the figure was over 10000 nM; with `[2H]C([2H])([2H])NC(=O)c1nnc(NC(=O)C2CC2)cc1Nc1cccc(-c2ncc(NC(=O)CC#N)s2)c1OC` [Example 284], over 10000 nM; with `[2H]C([2H])([2H])NC(=O)c1nnc(NC(=O)C2CC2)cc1Nc1cccc(-c2cc(C(=O)N3CNCC(=O)C3)n(C)n2)c1OC` [Example 532], 470 nM.

For `[2H]C([2H])([2H])NC(=O)c1nnc(NC(=O)C2CC2)cc1Nc1cccc(-c2cc(C(=O)N3CCS(=O)(=O)CC3)n(C)n2)c1OC` [Example 455, 6-(cyclopropanecarboxamido)-4-((3-(5-(1,1-dioxidothiomorpholine-4-carbonyl)-1-methyl-1H-pyrazol-3-yl)-2-methoxyphenyl)amino)-N-(methyl-d3)pyridazine-3-carboxamide], the IC50 worked out at 560 nM. As to `[2H]C([2H])([2H])NC(=O)c1nnc(NC(=O)C2CC2)cc1Nc1cccc(-c2ncc(C(=O)N3CC4CN(C)CC4C3)s2)c1OC` (stereo not shown) [Example 274], the IC50 is 50 nM. With `[2H]C([2H])([2H])NC(=O)c1nnc(NC(=O)C2CC2)cc1Nc1cccc(-c2ccn(CCNC(=O)CC#N)n2)c1OC` [Example 470] the figure was 340 nM.

As to `[2H]C([2H])([2H])NC(=O)c1nnc(NC(=O)C2CC2)cc1Nc1cccc(-c2cc(C(=O)NCC3CCN(C)C3)n(C)n2)c1OC` (stereo not shown) [Example 528], the IC50 was found to be 840 nM. Regarding `[2H]C([2H])([2H])NC(=O)c1nnc(NC(=O)C2CC2)cc1Nc1cccc(-c2nc(C)c(C(=O)N3CCC(N4CCCC4)CC3)s2)c1OC` [Example 361], the IC50 turned out to be 190 nM. As for `[2H]C([2H])([2H])NC(=O)c1nnc(NC(=O)C2CC2)cc1Nc1cccc(-c2ncc(NC(C)=O)s2)c1OC` [Example 279], the IC50 is 470 nM. With `[2H]C([2H])([2H])NC(=O)c1nnc(NC(=O)C2CC2)cc1Nc1cccc(-c2nc([C@H](NC(=O)OC(C)(C)C)[C@H](C)OC(C)(C)C)no2)c1OC` [Example 206], the IC50 was over 10000 nM. Then `[2H]C([2H])([2H])NC(=O)c1nnc(NC(=O)C2CC2)cc1Nc1cccc(-c2nc([C@@H](CO)NC(C)=O)no2)c1OC` [Example 220], with 200 nM; and `[2H]C([2H])([2H])NC(=O)c1nnc(NC(=O)C2CC2)cc1Nc1cc(F)cc(-c2cc(NS(C)(=O)=O)n(C)n2)c1OC` [Example 501], with 1130 nM.

Turning to `[2H]C([2H])([2H])NC(=O)c1nnc(NC(=O)C2CC2)cc1Nc1cccc(-n2cc(CN3CCN(S(C)(=O)=O)CC3)nn2)c1OC` [Example 4], the IC50 is 660 nM. As to `[2H]C([2H])([2H])NC(=O)c1nnc(NC(=O)C2CC2)cc1Nc1cccc(-c2nc(CNC(=O)CNC(=O)OC(C)(C)C)no2)c1OC` [Example 157], the IC50 is over 10000 nM. `[2H]C([2H])([2H])NC(=O)c1nnc(NC(=O)C2CC2)cc1Nc1cccc(-c2ccn(CCNC(=O)COC)n2)c1OC` [Example 469]: the IC50 was determined as 200 nM.

As to `[2H]C([2H])([2H])NC(=O)c1cnc(Nc2ccc(OC)nn2)cc1Nc1cc(F)cc(-c2cnn(C)n2)c1OC` [Example 452], the IC50 came out at 150 nM. For the molecule `COc1c(Nc2cc(N)nnc2C(N)=O)cccc1-c1noc(CN2CCOCC2)n1` [Example 107], the IC50 worked out at 820 nM. On to `[2H]C([2H])([2H])NC(=O)c1nnc(NC(=O)C2CC2)cc1Nc1cccc(-c2cnn(CCNC(=O)CC3CCCO3)n2)c1OC` (stereo not shown) [Example 438], for which the IC50 turned out to be 2890 nM. On to `[2H]C([2H])([2H])NC(=O)c1nnc(Nc2cnn(C)n2)cc1Nc1cccc(-c2ncc(CO)s2)c1OC` [Example 386], for which the IC50 is 490 nM. With `COc1c(Nc2cc(NC(=O)C3CC3)nnc2C(N)=O)cccc1-c1noc([C@@H](C)N(C)S(C)(=O)=O)n1` [Example 52], the IC50 turned out to be 90 nM. Regarding `[2H]C([2H])([2H])NC(=O)c1nnc(NC(=O)C2CC2)cc1Nc1cccc(-c2cnn(CCN)c2)c1OC` [Example 557], the IC50 was determined as 720 nM.

For the molecule `[2H]C([2H])([2H])NC(=O)c1cnc(NC(=O)C2CC2)cc1Nc1cc(F)cc(-c2cnn(C)n2)c1OC` [Example 453], the IC50 came to 60 nM. For `COc1c(Nc2cc(NC(=O)C3CC3)nnc2C(N)=O)cccc1-c1noc([C@H]2C[C@@H](O)CN2S(C)(=O)=O)n1` [Example 62], the IC50 amounted to 80 nM. On to `[2H]C([2H])([2H])NC(=O)c1cnc(NC(=O)C2CC2)cc1Nc1cccc(-c2nc(COCc3ccccc3)no2)c1OC` [Example 216], for which the IC50 is 320 nM. Then `[2H]C([2H])([2H])NC(=O)c1nnc(NC(=O)C2CC2)cc1Nc1cccc(-c2nc(C)c(C(=O)NCC3CCN(C)C3)s2)c1OC` (stereo not shown) [Example 368], with 350 nM; and `COc1c(Nc2cc(NC(=O)C3CC3)nnc2C(N)=O)cccc1-c1noc(C(=O)NCCC2CCCN2C)n1` (stereo not shown) [Example 37], with 18 nM. On to `[2H]C([2H])([2H])NC(=O)c1nnc(NC(=O)C2CC2)cc1Nc1cccc(-c2cc(C(=O)N(C)CC)n(C)n2)c1OC` [Example 539], for which the IC50 turned out to be 120 nM. As for `[2H]C([2H])([2H])NC(=O)c1nnc(NC(=O)C2CC2)cc1Nc1cccc(-c2ncc(C(=O)N3CCC(CCOC)CC3)s2)c1OC` [Example 325], the IC50 worked out at 110 nM. In the case of `COc1c(Nc2cc(NC(=O)C3CC3)nnc2C(N)=O)cccc1-c1ncc(C(=O)N2CCCC2)s1` [Example 407], the IC50 turned out to be 160 nM. For `[2H]C([2H])([2H])NC(=O)c1nnc(NC(=O)C2CC2)cc1Nc1cccc(-c2nc([C@@H](C)N)no2)c1OC` [Example 191], the half-maximal inhibitory concentration (IC50) came to 410 nM. In the case of `[2H]C([2H])([2H])NC(=O)c1nnc(NC(=O)C2CC2)cc1Nc1cccc(-c2ncc(C(=O)N3CC(=O)NC(=O)C3)s2)c1OC` [Example 331], the IC50 is 560 nM. Turning to `[2H]C([2H])([2H])NC(=O)c1nnc(NC(=O)C2CC2)cc1Nc1cccc(-c2nc([C@H](C)NC(C)=O)no2)c1OC` [Example 183], the IC50 amounted to 1680 nM. With `[2H]C([2H])([2H])NC(=O)c1nnc(Nc2ccc(OC)nn2)cc1Nc1cccc(-c2ncc(CNC(C)=O)s2)c1OC` [Example 387] the figure was 270 nM; with `[2H]C([2H])([2H])NC(=O)c1nnc(Nc2ccc(C)nn2)cc1Nc1cc(F)cc(-c2cc(C(=O)N(C)C)n(C)n2)c1OC` [Example 555], 40 nM; with `[2H]C([2H])([2H])NC(=O)c1nnc(NC(=O)C2CC2)cc1Nc1cccc(-c2nc([C@H](C)NS(C)(=O)=O)no2)c1OC` [Example 184], 130 nM. Take `[2H]C([2H])([2H])NC(=O)c1nnc(NC(=O)C2CC2)cc1Nc1cccc(-c2nc(CNC)no2)c1OC` [Example 168]: the IC50 was 230 nM.

The record behind these values is US12240840B2, “Amide-substituted heterocyclic compounds for the treatment of conditions related to the modulation of IL-12, IL-23 and/or IFN-alpha” (BRISTOL-MYERS SQUIBB COMPANY, priority 2018, dated 2025).
